# Peptide text beside a SMILES is read from it.
# Key:
# plasma cholesterol [1] = experiment: Plasma cholesterol after intravenous injection into fasted apo E null mice; assay type: in vivo
# Method: The peptides were dissolved in PBS pH=5.0. Control mice (n=5) received PBS pH=5.0. Data shown represent mean±SEM.
# Effects on cholesterol levels of peptide Ac-(R)14L-NH2 analog 2 (at 100 μg/mouse), administered intravenously into fasted apo E null mice as free peptide or as peptide:DMPC complexes at two pH levels. n=5 in all cases is shown in FIG. 11. Peptides were dissolved in PBS at the pH shown. Data shown represent mean±SEM.
# Blood samples were taken immediately before injection and at 2 minutes and at 5 hours after injection and measured for cholesterol. A control of only PBS was also measured. Total cholesterol in the blood samples was measured, and is expressed in FIG. 4 as mean±SEM. […] However, the reduction in plasma cholesterol was in the lipoproteins, including HDL. […] Feces were collected for 24 hours following injection of 100 μg of Ac-(R)18L-NH2:DMPC complexes (n=2) or PBS (n=5). Fecal sterols were extracted, and total cholesterol was determined manually (Sigma Infinity). […] Total feces were collected from individually-caged mice for 24 hours following intravenous injection of Ac-(R)18L-NH2 into apo E null mice at a dose of 100 μg/mouse. Total 24-hour fecal cholesterol was then calculated. Feces from each mouse were weighed, lyophilized, and then re-weighed. 100 mg dried feces was then homogenized, and total lipids were extracted. The dried extract was resuspended in isopropanol, and cholesterol was measured manually. Data shown in FIG. 6 are mean±SEM for control and mean±range for peptide.
# This experiment is carried out to show the usefulness of the peptides of the invention in vivo for lowering serum cholesterol. Peptide or peptide-lipid complexes were administered intravenously to mice. After some time period (as specifically shown in various figures), plasma samples were obtained by performing a retro-orbital bleed of the animals. The samples were analyzed by the column lipoprotein profile as previously described (Garber, D. et al. J. Lipid Res. 2000, 41:1020-1026). Briefly, 5 to 10 μl of the plasma was analyzed using a single superose (Pharmacia, Piscataway, N.J.) column. Immediately following the column run, cholesterol reagent is introduced through a mixing tee, and the eluent:reagent mixture enters a post column reaction coil. Cholesterol content of the reaction mixture is determined at 500 nm spectrophotometrically and the data points are collected into a computer. The resulting profiles are decomposed into component peaks and analyzed for relative area using PeakFit® computer software (SPSS Science, Chicago, Ill.). Absolute cholesterol value for total cholesterol is determined by comparisons with control samples of known values. The results would show a decrease in serum cholesterol in the subjects that received the polypeptides of the invention.
# plasma cholesterol [2] = experiment: Plasma cholesterol in dyslipidemic mouse models; assay type: in vivo; conditions: several dyslipidemic mouse models, dose-dependent manner
# Method: These studies were carried out to assess the bioactivity of the single domain R-18L peptides in vivo and compare its activity with the known activity of a dual domain Apo-E derived peptide. In this case, the bioactivity refers to the activity of lowering serum cholesterol in a subject (e.g., in a transgenic mouse). In this example, the 18L peptide analogs were administered to dyslipidemic mice.
# HepG2 cells = experiment: Uptake of 125I-LDL and 125I-VLDL by HepG2 cells in presence of peptide; assay type: cell-based
# Method: These experiments were performed to test the bioactivity of the R-18L peptide in cell culture. […] Specifically, ^125I-LDL and ^125I-VLDL and the R-18L peptide were incubated with HepG2 cells in vitro for 2 hours to determine the cellular uptake of the iodinated compounds. […] H/H represent uptake of the lipoproteins in cells treated with heparinase/heparitinase. […] In case of VLDL, the peptide-mediated uptake appeared to be predominantly via an HSPG pathway. […] Examples of atherogenic lipoproteins are VLDL and LDL.
# This experiment was carried out to follow the events subsequent to the binding of atherogenic lipoproteins to cultured cells. HepG2 cells (obtained from American Type Culture Collection (ATCC), Manassas, Va.) are used for determining peptide-mediated enhanced uptake of LDL or VLDL. Cells are grown in DMEM in six-well plates and used at 75% to 90% confluence. The seeding density of the cells that is used is 1.5-3.0×10^5 cells/ml. Cells are treated with DMEM containing lipoprotein-deficient serum (LPDS) 24 h prior to use to upregulate […] with the indicated concentration (0 to 50 μg of ^125I-LDL) at 4° C. for 2 h in presence or absence of peptides. Nonspecific binding is assessed in the presence of 50-fold excess of unlabelled LDL with or without peptides. After washing with ice-cold PBS, (containing 2 mg/ml BSA) to remove excess labeled lipoproteins, cells are incubated with excess dextran sulfate (4 mg/ml Pharmacia, Mr of 500,000) or heparin (Sigma Chemical Co., St. Louis, Mo., 10 mg/ml) for 1 h to release specifically bound ^125I-LDL. The counts in the dextran sulfate wash reflect the amount of LDL bound to cells. Cells are then washed with PBS and then dissolved in 0.1 N NaOH and a 0.5 ml aliquot of the cells suspension is counted. The counts reflect the amount of LDL internalized. The amount of protein is estimated using the Lowry method. Degradation of LDL is assessed by precipitating ^125I-LDL using 17% […] acid and incubating at 4° C. for 30 min. The precipitate is removed by centrifugation. The supernatant is treated with 10 μl of 40% KI and 40 μl of 10% hydrogen peroxide. The free ^125I is extracted with 2 ml chloroform. The upper aqueous layer is then counted for radioactivity. These counts represent the amount of monoiodi-tyrosine produced by the degradation of apo B in lipoproteins. Cell surface HSPG is removed by treating cells with heparinase and heparitinase (Sigma Chemical Co., St. Louis, Mo.) at a concentration of 3 u/ml of medium for 2 h at 37° C. In all cell experiments an average value of triplicate experiments are considered. Counts are detected inside the cultured cells and it is shown that LDL and VLDL are bound, internalized and degraded in the cultured cells in the presence of the peptide of the invention.
# LDL from LDL-R null mice = experiment: Association of 125I-labelled peptide with plasma lipoproteins (CLiP profile, radioactivity of fractions); assay type: binding, LDL-R null mouse
# Method: Peptide [^125I]Ac-(R)18L-NH2 was mixed with plasma from an LDL-R null mouse at a proportion of 100 μg peptide:1 mL plasma. The plasma lipoprotein profile was determined using the CLiP method (Garber and Anantharamaiah, J. Lipid. Res., 2000), and fractions were collected for measurement of radioactivity. Thus, peptide:lipid complexes are good candidates for administration that would result in enhanced uptake of atherogenic lipoproteins. The effect of the single domain peptide of the invention should last longer than any dual domain peptide since lipid-associated peptide is helical and the backbone is not accessible for proteolytic cleavage (degradation). Thus, several slow-release formulations of peptides with lipids are tested to determine the optimal formulation for delivery.
# [3] = Toxicity of intravenously administered peptide to mice; assay type: in vivo; conditions: 100 μg/mouse; for toxicity to mice, in words: intravenously
# [4] = Solubility of peptide and peptide:DMPC complexes
# erythrocytes = experiment: Hemolysis of erythrocytes (hemoglobin content of supernatant, absorbance at 540 nm); assay type: cell-based
# Method: This example was performed to test the affect of amino acid residue changes on the lytic nature of peptides of the invention. Lysine residues, which resided on the polar face of the single domain peptide, were substituted with arginine and such altered peptides were tested for lytic ability. Similarly, in other peptides of the invention, lysine residues on the polar face of the single domain peptide of the invention were dimethylated. These altered peptides neutralized the hemolytic property of the 18 L peptide. A suspension of erythrocytes (10^6 cells/ml) in phosphate-buffered saline with and without peptide (10 ml of […] peptide solution) was incubated for 10 min at 37° C. Hemolysis was expressed as hemoglobin content (absorbance at 540 nm) of the supernatant after centrifugation at 16,000×g for 3 min. Hemoglobin content as measured in the presence of 0.1% Triton X-100 was taken as 100% hemolysis.
compound,measurement,setting,value
GIRRFYGSIWRFIR (Ac-GIRRFYGSIWRFIR-NH2) [Ac-(R)14L-NH2 analog 1],reducing plasma cholesterol,"plasma cholesterol [1]; free peptide, 100 μg/mouse, i.v., PBS pH=5, fasting apo E null mice (FIG. 10)",not effective
Ac-GIRRFLGSIWRFIRAFYG-NH2 [R-18L],reducing plasma cholesterol,plasma cholesterol [2],effective in reducing plasma cholesterol
same,uptake of LDL by HepG2 cells,"HepG2 cells; 125I-LDL, 2 hours incubation",effective in enhancing the uptake
same,uptake of VLDL by HepG2 cells,"HepG2 cells; 125I-VLDL, 2 hours incubation",effective in enhancing the uptake
same,enhanced uptake of VLDL in cells treated with heparinase/heparitinase (H/H),"HepG2 cells; HepG2 cells, H/H treated",completely abrogated
same,uptake of LDL in cells treated with heparinase/heparitinase (H/H),"HepG2 cells; HepG2 cells, H/H treated",significant enhancement of uptake
same,counts per minute in VLDL peak,"LDL from LDL-R null mice; FIG. 7, elution volume c. 12 mL",~50 CPM
same,counts per minute in LDL peak,"LDL from LDL-R null mice; FIG. 7, elution volume c. 16 mL",~150 CPM
same,counts per minute in HDL peak,"LDL from LDL-R null mice; FIG. 7, elution volume c. 18 mL",~350 CPM
same,"cholesterol reduction, dose dependency","plasma cholesterol [1]; 50 μg of peptide per mouse, i.v., 5 hours, limited to VLDL and IDL/LDL fractions (FIG. 5)",substantial reduction
same,reducing plasma cholesterol,"plasma cholesterol [1]; 50 μg/mouse, i.v., PBS pH=5.0, fasting apo E null mice (FIG. 10)",effective in reducing plasma cholesterol
same,duration of plasma cholesterol reduction,plasma cholesterol [1]; 100 μg/mouse i.v. (FIG. 4),maintained for at least five hours
same,reduction of plasma cholesterol,"plasma cholesterol [1]; 100 μg/mouse i.v., within two minutes, versus basal level (FIG. 4)",approximately 90%
same,lowering plasma cholesterol in apo E(−) mice compared with dual domain peptide,plasma cholesterol [1]; apo E(−) mice,more effectively than the dual domain peptide
same,"toxicity to mice, in words",[3],completely normal
CC[C@H](C)[C@H](NC(=O)[C@H](Cc1ccccc1)NC(=O)[C@H](CCCNC(=N)N)NC(=O)[C@H](Cc1c[nH]c2ccccc12)NC(=O)[C@@H](NC(=O)[C@H](CO)NC(=O)CNC(=O)[C@H](Cc1ccc(O)cc1)NC(=O)[C@H](Cc1ccccc1)NC(=O)[C@H](CCCNC(=N)N)NC(=O)[C@H](CCCNC(=N)N)NC(C)=O)[C@@H](C)CC)C(=O)N[C@@H](CCCNC(=N)N)C(=O)N[C@@H](C)C(=O)N[C@@H](Cc1ccccc1)C(N)=O [Ac-(R)14L-NH2 analog 2] (Ac-RRFYGSIWRFIRAF-NH2),solubility,[4]; pH=5.0,freely soluble
same,solubility,[4]; pH=7.4,only partially soluble
same,effect of DMPC on the suspension,"[4]; pH=7.4, addition of DMPC at a 1:1 ratio (w/w)",completely clarified this suspension
"GIKKFLGSIWKFIKAFVG [18L, reference compound]",hemolysis (lytic),erythrocytes,80%
same,"hemolysis / cell lysis, in words",erythrocytes,caused marked hemolysis
same,mice that died,[3],four out of six
same,"toxicity to mice, in words",[3],highly toxic
